Earlier results, collected in patent publication US20110201631A1, “PHARMACEUTICAL FORMULATIONS COMPRISING PEMETREXED” (DR. REDDY'S LABORATORIES LTD., priority 2008, published 2011).

Details: U.S. Pat. No. 7,138,521

## Nc1nc2[nH]cc(CCc3ccc(C(=O)N[C@@H](CCC(=O)[O-])C(=O)[O-])cc3)c2c(=O)[nH]1.[Na+].[Na+] [heptahydrate, L-Glutamic acid, N-[4-[2-(2-amino-4,7-dihydro-4-oxo-1H-pyrrolo[2,3-c]pyrimidin-5-yl)ethyl]benzoyl]-, disodium salt, heptahydrate]
  Stability of crystal form relative to 2.5 hydrate: much more stable than the previously known 2.5 hydrate
